Data from ChEMBL document CHEMBL2016569, “Pyronepolyene C-glucosides with NF-κB inhibitory and anti-influenza A viral (H1N1) activities from the sponge-associated fungus Epicoccum sp. JJY40” (Bioorg Med Chem Lett, 2012).

Experiments:
Influenza A virus = experiment: Antiviral activity against Influenza A virus (A/Puerto Rico/8/34(H1N1)) infected in MDCK cells assessed as inhibition of virus induced cytopathicity after 48 hrs; format: functional, organism-based; conditions: A/Puerto Rico/8/1934(H1N1)
[1] = Inhibition of LPS-induced NFkappaB expression in mouse RAW264.7 cells pretreated for 4 hrs before LPS challenge measured after 24 hrs by luciferase reporter gene assay relative to control; format: cell-based
RAW264.7 = experiment: Inhibition of LPS-induced NFkappaB expression in mouse RAW264.7 cells at 0.1 uM pretreated for 4 hrs before LPS challenge measured after 24 hrs by luciferase reporter gene assay relative to control; format: cell-based

Work on `NC(=O)c1ncn([C@@H]2O[C@H](CO)[C@@H](O)[C@H]2O)n1` [RIBAVIRIN] yielded an IC50 (Influenza A virus) of 115 µM.
For `CCC(C)CC(C)/C=C(/C=C(C)\C=C\C=C\C=C\C=C\C=C\c1cc(O)c([C@@H]2O[C@H](CO)[C@H](O)[C@H](O)[C@H]2O)c(=O)o1)C(=O)O` (stereo partly specified), the IC50 [1] was 40 µM and the IC50 (Influenza A virus) was 91.5 µM.
With `S=C(S)N1CCCC1` the inhibition (RAW264.7) was 85%.
In the case of `CCC(C)CC(C)/C=C(/C=C(C)/C=C/C=C/C=C/C=C/C=C/c1cc(O)c([C@@H]2O[C@H](CO)[C@H](O)[C@H](O)[C@H]2O)c(=O)o1)C(=O)O` (stereo partly specified), the IC50 [1] is reported as 50 µM and the IC50 (Influenza A virus) is reported as 101 µM.
